In test [1] the test system is minimal residual disease. Briefly: Model of minimal residual disease (tumor formation, survival). In kind it is in vivo.
In test [2] the test system is mTOR pathway markers. As to the kind of experiment: Phase 2 biomarker exploratory trial: mTOR pathway markers in tumors and PBMCs. In kind it is in vivo. Particulars: HNSCC patients. The text has this:
Criteria #1) Biomarker expression in normal tissue should be different from that in high risk tissue. In FIG. 2 we present an analysis of cancer (lanes 5, 6, 11, and 12) and non-cancer (patients with sleep apnea) (lanes1-4 and 7-10) patient samples. The cancer samples include tumors (T) and histologically tumor-free margins (M). […] Criteria #2) Biomarkers can be detected in small tissue specimens. In our studies we have successfully detected by western blots and even by IHC the various Akt/mTOR markers on samples often as small as 5 mm. Criteria #3) Biomarkers can be expressed in a quantity or pattern that can be correlated with the stage of carcinogenesis.

The subject of test [3] is HNSCC cell lines. As to the kind of experiment: Inhibition of cell proliferation in HNSCC cell lines. The format is cell-based. The text has this:
While curcumin can be used to treat these cancers, other compounds that act on these pathways may also be useful in treating these cancers and it should be readily recognized that such compounds could also be delivered by including in the formulations described herein.

In test [4] the test system is normal fibroblast cell line CCL110. Briefly: Effects on normal fibroblast cell line CCL110 (proliferation). In kind it is cell-based. Conditions: normal fibroblast cell line CCL110, FIG. 1.
The test system of test [5] is PCI15a cells. As to the kind of experiment: Modulation of NFκB and Akt/mTOR pathways in PCI15a cells. In kind it is cell-based. Particulars: 10 μM.
The test system of test [6] is SCC40 cells. Briefly: Modulation of NFκB and Akt/mTOR pathways in SCC40 cells. Conditions: 10 μM. In kind it is cell-based.
The subject of test [7] is SCC066. As to the kind of experiment: Modulation of NFκB and Akt/mTOR pathways in SCC066 cells. The format is cell-based. Particulars: 10 μM, 24 and 48 hours.
Test [8] concerns normal fibroblast cell line CCL110. Briefly: Modulation of NFκB and Akt/mTOR pathways in CCL110 normal fibroblasts. The format is cell-based. Conditions: 10 μM, 24 and 48 hours.
The subject of test [9] is SCC40 xenografts. As to the kind of experiment: pAkt and pS6 in SCC40 xenografts of treated mice. The format is in vivo. Particulars: mice with SCC40 xenografts, FIG. 3B.
In test [10] the test system is tumor cells. As to the kind of experiment: Chemoprevention model: pre-treatment before tumor cell injection, tumor volumes. The format is in vivo, Balb/c nu/nu mice. Particulars: 10 mg, pre-treated 4 days before tumor cell injection, about three weeks. How it is done: Balb/c nu/nu mice were randomized into treatment groups. […] Tumors were measured over approximately three weeks. […] ANOVA analysis. […] This also points to its role as a chemopreventive agent rather than a therapeutic agent.

Test [11] deals with TPA-induced tumor promotion on mouse skin. Particulars: topical application of 10 μmol twice weekly; cited from earlier work.
The subject of test [12] is DMBA-induced oral tumors. Conditions: 10 μmol topically to cheek pouch 3 times/week for 24 weeks; cited from earlier work.
Test [13] concerns prostate cancer xenograft. Particulars: p.o. gavage 5 mg/day, 5 days/week for 4 weeks; cited from earlier work.

For `CO[C@H]1C[C@@H]2CC[C@@H](C)[C@@](O)(O2)C(=O)C(=O)N2CCCC[C@H]2C(=O)O[C@H]([C@H](C)C[C@@H]2CC[C@@H](OC(=O)C(C)(CO)CO)[C@H](OC)C2)CC(=O)[C@H](C)/C=C(\C)[C@@H](O)[C@@H](OC)C(=O)[C@H](C)C[C@H](C)/C=C/C=C/C=C/1C` [CCI-779, temsirolimus], in test [1], the survival entry is “improve survival” and the tumor formation result is listed as “inhibit tumor formation”. Also, in [2], the “mTOR pathway markers in tumors and PBMCs” value is reported as “modulation of these markers”.
On to `CO[C@H]1C[C@@H]2CC[C@@H](C)[C@@](O)(O2)C(=O)C(=O)N2CCCC[C@H]2C(=O)O[C@H]([C@H](C)C[C@@H]2CC[C@@H](OCCO)[C@H](OC)C2)CC(=O)[C@H](C)/C=C(\C)[C@@H](O)[C@@H](OC)C(=O)[C@H](C)C[C@H](C)/C=C/C=C/C=C/1C` [RAD001, everolimus, reference compound], for which the “sensitivity of a variety of cell lines” value in test [3] was “wide range of sensitivity”.
As for `COc1cc(/C=C/C(=O)CC(=O)/C=C/c2ccc(O)c(OC)c2)ccc1O` [curcumin], in test [3] (all 10 HNSCC cell lines tested to date), the “growth inhibitory effects on all HNSCC cell lines tested” value is reported as “growth inhibitory effects”. In addition, in [3] (all HNSCC cell lines, 10 μM, FIG. 1), the “cell proliferation at 10 μM” value was “inhibition of cell proliferation”. Besides, the “growth inhibitory effects at 48 hours” value in [3] (all three HNSCC cell lines, 48 hours) is “significant growth inhibitory effects”. In test [3] (variety of HNSCC cell lines, in vitro, FIG. 1), the “concentration giving consistent inhibition of cell proliferation” value is “less than 10 μM”. In test [3], the “sensitivity of a variety of cell lines” value is listed as “consistently sensitive”. Further, the “dose required to see effects” value in test [4] was in the range of 20 to 40 µM. Besides, the pNFκB result in [5] (24 and 48 hours) was “no change”; in [6] (after 48 hours), “down-regulation”. Moreover, the figures for the pAkt result in [5] (48 hours) and in [9] were “down-regulated” and “significant decrease”, respectively. For the same molecule, the “pS6 downstream of mTOR” value in [5] (48 hours) is given as “down-regulated”. Also, the Akt/mTOR pathway entry in [6] (24 and 48 hours) is recorded as “no change”; in test [7], “did not show any modulation”. Besides, the “pNFκB or Akt/mTOR” value in test [8] is listed as “no decrease”. Further, the pS6 result in test [9] was “significant decrease”. The “tumor volumes versus control (vehicle treated)” value in test [10] is “no significant difference”. For the same molecule, in [11], the “inhibition of the number of tumors per mouse” value is on record as 98%. For the same molecule, in test [12], the “reduction of the number of DMBA-induced oral tumors” value is given as around 40%. Besides, in [13], the “inhibition of growth of prostate cancer xenograft” value is around 50%.

(Values after US20180028471A1, “CONTINUOUS LOCAL SLOW-RELEASE OF THERAPEUTICS FOR HEAD AND NECK PROBLEMS AND UPPER AERODIGESTIVE DISORDERS” (Board of Supervisors of Louisiana State University and …, priority 2016, published 2018).)
